Laboratory results taken from ChEMBL document CHEMBL4321809, “Structure-Reactivity Relationships on Substrates and Inhibitors of the Lysine Deacylase Sirtuin 2 from Schistosoma mansoni (SmSirt2)” (J Med Chem, 2019).
pIC50: −log10 of the molar value. Calls of active or inactive are those of the source. The rule behind the calls is not given here.

Experiments:
Schistosoma mansoni [1] = experiment: Antiparasitic activity against adult Schistosoma mansoni Puerto Rico assessed as reduction in worm pairing at 10 to 20 uM after 24 hrs by microscopic analysis; type: functional, organism-based
[2] = target: T1, NAD-dependent protein deacetylase sirtuin-3, mitochondrial (Homo sapiens, UniProt Q9NTG7); experiment: Inhibition of human sirtuin 3 at 25 uM relative to control
T1 sequence (Q9NTG7 whole entry): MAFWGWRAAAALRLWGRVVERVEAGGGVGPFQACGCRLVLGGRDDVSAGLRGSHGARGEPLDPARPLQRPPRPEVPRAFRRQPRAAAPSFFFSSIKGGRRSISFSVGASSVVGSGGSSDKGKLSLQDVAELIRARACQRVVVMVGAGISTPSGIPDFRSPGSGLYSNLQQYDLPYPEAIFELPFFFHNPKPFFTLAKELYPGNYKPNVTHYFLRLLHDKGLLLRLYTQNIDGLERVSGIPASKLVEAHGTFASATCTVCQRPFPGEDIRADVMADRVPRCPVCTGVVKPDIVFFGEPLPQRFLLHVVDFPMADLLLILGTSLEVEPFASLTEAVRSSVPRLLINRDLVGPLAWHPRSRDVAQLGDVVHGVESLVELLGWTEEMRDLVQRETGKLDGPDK

[3] = target: T2, NAD-dependent protein deacetylase (Schistosoma mansoni, UniProt T1VXA1); experiment: Inhibition of recombinant Schistosoma mansoni sirtuin 2 (21 to 322 residues) expressed in Escherichia coli BL21(DE3) cells using ZMAL as substrate after 1 hr in presence of NAD+ by homogeneous fluorescence based analysis
T2 sequence (T1VXA1 whole entry): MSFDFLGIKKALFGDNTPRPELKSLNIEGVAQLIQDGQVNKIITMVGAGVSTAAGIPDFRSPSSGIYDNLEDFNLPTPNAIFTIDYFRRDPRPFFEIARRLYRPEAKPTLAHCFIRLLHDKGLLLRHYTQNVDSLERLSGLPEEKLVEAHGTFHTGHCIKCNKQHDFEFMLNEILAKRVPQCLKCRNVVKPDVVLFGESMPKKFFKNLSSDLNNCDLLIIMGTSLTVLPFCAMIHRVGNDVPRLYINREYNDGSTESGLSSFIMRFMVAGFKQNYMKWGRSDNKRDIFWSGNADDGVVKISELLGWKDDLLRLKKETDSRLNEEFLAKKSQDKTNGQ

[4] = target: T3, NAD-dependent protein deacetylase sirtuin-2 (Homo sapiens, UniProt Q8IXJ6); experiment: Inhibition of N-terminal His6 tagged human sirtuin 2 (25 to 389 residues) at 25 uM using Cbz-Lys(acetyl)-AMC as substrate after 4 hrs in presence of NAD+ by homogeneous fluorescence based analysis relative to control
T3 sequence (Q8IXJ6 whole entry): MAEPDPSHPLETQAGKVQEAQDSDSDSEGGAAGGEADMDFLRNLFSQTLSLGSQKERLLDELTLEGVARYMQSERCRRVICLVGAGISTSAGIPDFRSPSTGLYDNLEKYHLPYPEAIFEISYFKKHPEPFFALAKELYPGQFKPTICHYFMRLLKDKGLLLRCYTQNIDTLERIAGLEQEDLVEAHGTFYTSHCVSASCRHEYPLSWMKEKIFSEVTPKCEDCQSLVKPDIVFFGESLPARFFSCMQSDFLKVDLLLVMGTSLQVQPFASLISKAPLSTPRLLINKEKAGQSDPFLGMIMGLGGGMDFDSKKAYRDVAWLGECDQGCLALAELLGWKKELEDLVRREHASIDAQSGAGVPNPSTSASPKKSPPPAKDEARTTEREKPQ

[5] = target: T3, NAD-dependent protein deacetylase sirtuin-2; experiment: Inhibition of N-terminal His6 tagged human sirtuin 2 (25 to 389 residues) assessed as inhibition of substrate demyristoylation using (Z)-(Myr)-Lys-AMC as susbtrate after 4 hrs in presence of NAD+ by homogeneous fluorescence based analysis
[6] = target: T4, NAD-dependent protein deacetylase sirtuin-1 (Homo sapiens, UniProt Q96EB6); experiment: Inhibition of human sirtuin 1 at 25 uM relative to control
T4 sequence (Q96EB6 whole entry): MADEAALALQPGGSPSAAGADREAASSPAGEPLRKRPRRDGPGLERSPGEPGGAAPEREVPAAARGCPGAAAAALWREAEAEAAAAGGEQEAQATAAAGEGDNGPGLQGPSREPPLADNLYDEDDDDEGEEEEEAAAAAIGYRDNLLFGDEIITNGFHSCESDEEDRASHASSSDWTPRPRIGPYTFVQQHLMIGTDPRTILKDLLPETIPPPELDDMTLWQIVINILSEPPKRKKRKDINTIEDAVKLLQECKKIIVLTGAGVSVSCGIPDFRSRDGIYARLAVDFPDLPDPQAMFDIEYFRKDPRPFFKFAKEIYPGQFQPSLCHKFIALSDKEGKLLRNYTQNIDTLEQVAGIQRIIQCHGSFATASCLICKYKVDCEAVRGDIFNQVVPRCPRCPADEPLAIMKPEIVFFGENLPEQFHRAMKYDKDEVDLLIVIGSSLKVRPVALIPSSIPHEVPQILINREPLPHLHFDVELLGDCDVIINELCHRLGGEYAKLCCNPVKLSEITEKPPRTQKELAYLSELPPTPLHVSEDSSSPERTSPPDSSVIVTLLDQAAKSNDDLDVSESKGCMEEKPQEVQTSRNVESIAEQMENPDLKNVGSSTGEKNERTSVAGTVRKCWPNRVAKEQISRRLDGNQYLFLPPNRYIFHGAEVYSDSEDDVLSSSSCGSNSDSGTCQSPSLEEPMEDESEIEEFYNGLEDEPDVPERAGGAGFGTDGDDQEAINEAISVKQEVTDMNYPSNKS

[7] = target: T5, NAD-dependent protein deacetylase (Schistosoma mansoni) (UniProt T1VXA1); experiment: Inhibition of recombinant Schistosoma mansoni sirtuin 2 (21 to 322 residues) expressed in Escherichia coli BL21(DE3) cells assessed as inhibition of substrate demyristoylation at 20 uM using (Z)-(Myr)-Lys-AMC as susbtrate after 1 hr in presence of NAD+ by homogeneous fluorescence based analysis relative to control
T5 sequence (whole entry): T2 sequence (T1VXA1 whole entry)

Schistosoma mansoni [8] = experiment: Antiparasitic activity against adult Schistosoma mansoni Puerto Rico assessed as reduction in egg laying at 10 to 20 uM after 24 hrs by microscopic analysis; type: functional, organism-based
HL-60 = experiment: Cytotoxicity against human HL60 cells at 10 uM after 72 hrs by Cell titer MTS dye based analysis; conditions: hl-60, 72 h
Schistosoma mansoni [9] = experiment: Antiparasitic activity against Schistosoma mansoni Puerto Rico assessed as reduction in parasite viability at 10 to 20 uM after 72 hrs by microscopic analysis; type: functional, organism-based
[10] = target: T3, NAD-dependent protein deacetylase sirtuin-2; experiment: Inhibition of N-terminal His6 tagged human sirtuin 2 (25 to 389 residues) at 50 uM using Cbz-Lys(acetyl)-AMC as substrate after 4 hrs in presence of NAD+ by homogeneous fluorescence based analysis relative to control
[11] = target: T3, NAD-dependent protein deacetylase sirtuin-2; experiment: Inhibition of N-terminal His6 tagged human sirtuin 2 (25 to 389 residues) assessed as inhibition of substrate demyristoylation at 20 uM using (Z)-(Myr)-Lys-AMC as susbtrate after 4 hrs in presence of NAD+ by homogeneous fluorescence based analysis relative to control
[12] = target: T5, NAD-dependent protein deacetylase (Schistosoma mansoni); experiment: Inhibition of recombinant Schistosoma mansoni sirtuin 2 (21 to 322 residues) expressed in Escherichia coli BL21(DE3) cells at 25 uM using ZMAL as susbtrate after 1 hr in presence of NAD+ by homogeneous fluorescence based analysis relative to control
[13] = target: T3, NAD-dependent protein deacetylase sirtuin-2; experiment: Inhibition of N-terminal His6 tagged human sirtuin 2 (25 to 389 residues) using Cbz-Lys(acetyl)-AMC as substrate after 4 hrs in presence of NAD+ by homogeneous fluorescence based analysis
[14] = Selectivity ratio of IC50 for N-terminal His6 tagged human sirtuin 2 (25 to 389 residues) to IC50 for recombinant Schistosoma mansoni sirtuin 2 (21 to 322 residues) expressed in Escherichia coli BL21(DE3) cells
[15] = target: T5, NAD-dependent protein deacetylase (Schistosoma mansoni); experiment: Inhibition of recombinant Schistosoma mansoni sirtuin 2 (21 to 322 residues) expressed in Escherichia coli BL21(DE3) cells assessed as inhibition of substrate demyristoylation at 20 uM using (Z)-(Myr)-Lys-AMC as substrate relative to control
[16] = target: T3, NAD-dependent protein deacetylase sirtuin-2; experiment: Inhibition of human sirutin 2 assessed as inhibition of susbtrate demyristoylation at 20 uM using (Z)-(Myr)-Lys-AMC as substrate relative to control
[17] = target: T5, NAD-dependent protein deacetylase (Schistosoma mansoni); experiment: Inhibition of recombinant Schistosoma mansoni sirtuin 2 (21 to 322 residues) expressed in Escherichia coli BL21(DE3) cells assessed as inhibition of substrate deacetylation at 20 uM using ZMAL as substrate relative to control

Compound | inhibition at 25 µM [2] | pIC50 [3] | inhibition at 25 µM [4] | pIC50 [5] | inhibition at 25 µM [6] | inhibition [7] | inhibition [12] | inhibition (Schistosoma mansoni [1]) | inhibition (Schistosoma mansoni [8]) | Activity (HL-60) | inhibition (Schistosoma mansoni [9]) | also measured
COc1cc(OC)cc(Oc2ccc(C(c3ccccc3)N(C)c3ncc4c(N)nc(N)nc4n3)cc2)c1 (centres undefined) | < 15% | 5.48 | 29.6% | 4.88 | < 15% | < 15% |  | Active | Active | Non-Toxic | Active | 
O=C(c1cc2cc(Cl)ccc2[nH]1)N1CCCCC1c1cccnc1 (centres undefined) |  | 4.74 |  |  |  |  |  |  |  |  |  | inhibition at 50 µM [10]: < 15%
COc1cc(OC)cc(Sc2ccc(C(c3ccccc3)N(C)c3ncc4c(N)nc(N)nc4n3)cc2)c1 (centres undefined) |  | 5.70 |  | 4.81 |  | < 15% |  | Active | Active |  | Active | pIC50 [13]: 4.67; Ratio IC50 [14]: 10
Cc1cc(C)nc(SCC(=O)Nc2ncc(Cc3cccc4ccccc34)s2)n1 |  |  |  |  |  |  |  |  |  |  |  | inhibition [15]: < 15%; inhibition at 20 µM [16]: < 15%; inhibition [17]: < 15%
COC1=C(OC)C(=O)C(CCCCCCCCCCO)=C(C)C1=O [IDEBENONE] |  | 5.72 |  |  |  |  |  |  |  |  |  | pIC50 [13]: 4.81

The next lines start with results.

inhibition at 25 µM [2] | pIC50 [3] | inhibition at 25 µM [4] | pIC50 [5] | inhibition at 25 µM [6] | inhibition [7] | inhibition [12] | Compound | inhibition (Schistosoma mansoni [1]) | inhibition (Schistosoma mansoni [8]) | Activity (HL-60) | inhibition (Schistosoma mansoni [9]) | also measured
 |  | < 15% |  |  | < 15% | 41.9% | COc1ccc(C(=O)Nc2ccc(C(C)N(C)c3ncc4c(N)nc(N)nc4n3)cc2)cc1 (centres undefined) |  |  |  |  | inhibition at 20 µM [11]: < 15%
 |  | < 15% |  |  | < 15% | 49% | CSc1ccc(Oc2ccc(C(C)N(C)c3ncc4c(N)nc(N)nc4n3)cc2)cc1 (centres undefined) |  |  |  |  | inhibition at 20 µM [11]: 38.1%
< 15% |  | 61.7% |  | < 15% |  | 46.2% | COc1ccc(COc2ccc(C(C)N(C)c3ncc4c(N)nc(N)nc4n3)cc2)cc1 (centres undefined) | Active | Active | Toxic | Active | 
< 15% |  | < 15% |  | < 15% |  | < 15% | COc1ccc(Oc2ccc(CN(C)c3ncc4c(N)nc(N)nc4n3)cc2)cc1 | Active | Active | Toxic | Active | 
< 15% | 5.37 | 27.9% | 4.60 | < 15% | 15% |  | COc1cc(OC)cc(Sc2ccc(C(C)N(C)c3ncc4c(N)nc(N)nc4n3)cc2)c1 (centres undefined) | Active | Active | Non-Toxic | Active | 
